From paper PMC3632402 (Analytical biochemistry, 2012)

Columns and labels:
rat sEH = biological target: T1, rat sEH (Rattus norvegicus, UniProt P80299); assay: Fluorescence binding assay of reporter ACPU on rat sEH
T1 sequence (P80299 1-554): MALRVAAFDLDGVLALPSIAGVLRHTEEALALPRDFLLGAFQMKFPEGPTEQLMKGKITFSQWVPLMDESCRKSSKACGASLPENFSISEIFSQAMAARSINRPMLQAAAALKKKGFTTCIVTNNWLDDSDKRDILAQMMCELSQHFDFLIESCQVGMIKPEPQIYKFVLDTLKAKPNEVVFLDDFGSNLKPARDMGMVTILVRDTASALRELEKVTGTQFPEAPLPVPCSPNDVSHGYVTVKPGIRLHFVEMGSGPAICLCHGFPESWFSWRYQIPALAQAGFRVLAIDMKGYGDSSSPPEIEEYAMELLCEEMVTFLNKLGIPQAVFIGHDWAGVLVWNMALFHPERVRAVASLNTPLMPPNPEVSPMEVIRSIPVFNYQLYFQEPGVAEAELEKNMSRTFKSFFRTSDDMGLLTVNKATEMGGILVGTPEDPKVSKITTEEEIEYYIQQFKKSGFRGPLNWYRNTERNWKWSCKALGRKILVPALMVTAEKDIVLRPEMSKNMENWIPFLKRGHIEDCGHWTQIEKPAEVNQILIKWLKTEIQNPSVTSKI

murine sEH = biological target: T2, murine sEH (Mus musculus, UniProt P34914); assay: Fluorescence binding assay of reporter ACPU on murine sEH
T2 sequence (P34914 1-554): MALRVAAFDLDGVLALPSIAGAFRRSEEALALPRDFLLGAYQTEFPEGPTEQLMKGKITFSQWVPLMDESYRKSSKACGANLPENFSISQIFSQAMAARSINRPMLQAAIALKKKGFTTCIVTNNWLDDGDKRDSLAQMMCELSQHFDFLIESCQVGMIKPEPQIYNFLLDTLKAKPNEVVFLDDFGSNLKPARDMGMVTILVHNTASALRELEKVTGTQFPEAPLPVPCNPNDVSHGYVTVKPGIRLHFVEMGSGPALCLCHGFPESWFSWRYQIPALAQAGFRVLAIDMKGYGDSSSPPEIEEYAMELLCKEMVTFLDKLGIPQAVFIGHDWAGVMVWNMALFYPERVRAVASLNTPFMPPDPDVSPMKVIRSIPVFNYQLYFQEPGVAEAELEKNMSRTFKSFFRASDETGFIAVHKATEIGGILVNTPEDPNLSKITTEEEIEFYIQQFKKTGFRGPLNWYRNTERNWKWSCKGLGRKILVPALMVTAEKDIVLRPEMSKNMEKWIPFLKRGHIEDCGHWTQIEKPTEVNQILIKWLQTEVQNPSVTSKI

hsEH = biological target: T3, hsEH (Homo sapiens, UniProt P34913); assay: Fluorescence binding assay
T3 sequence (P34913 1-555): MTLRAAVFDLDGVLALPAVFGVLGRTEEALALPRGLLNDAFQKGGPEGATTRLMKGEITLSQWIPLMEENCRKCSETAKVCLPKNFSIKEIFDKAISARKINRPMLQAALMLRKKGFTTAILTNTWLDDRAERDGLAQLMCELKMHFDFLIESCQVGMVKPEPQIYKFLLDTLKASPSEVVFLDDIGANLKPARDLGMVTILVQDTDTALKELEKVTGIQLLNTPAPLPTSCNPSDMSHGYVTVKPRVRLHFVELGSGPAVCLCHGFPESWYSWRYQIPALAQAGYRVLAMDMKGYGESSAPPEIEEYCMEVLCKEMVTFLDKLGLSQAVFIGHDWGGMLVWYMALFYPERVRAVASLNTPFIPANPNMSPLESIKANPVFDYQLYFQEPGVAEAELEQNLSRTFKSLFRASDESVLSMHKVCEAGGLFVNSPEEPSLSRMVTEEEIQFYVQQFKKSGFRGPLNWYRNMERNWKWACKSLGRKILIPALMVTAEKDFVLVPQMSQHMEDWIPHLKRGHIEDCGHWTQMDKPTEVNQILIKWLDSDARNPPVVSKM

O=C(NC1CCN(C(=O)Cc2cc(=O)oc3cc(O)ccc23)CC1)NC12CC3CC(CC(C3)C1)C2 [ACPU, 1-(adamantan-1-yl)-3-(1-(2-(7-hydroxy-2-oxo-2H-chromen-4-yl)acetyl)piperidin-4-yl)urea]
Kd (rat sEH): 0.17 nM
Kd (murine sEH): 0.1 nM
Kd (hsEH): 1.04 ± 0.04 nM
time needed to reach the equilibrium between ACPU and sEH (hsEH; FRET signal at 450 nm): 40 min
